This note sets out measurements from ChEMBL document CHEMBL1122101, “Synthesis and tissue distribution study of iodine-labeled benzyl- and xylylamines” (J Med Chem, 1982).

Molecules are shown by their SMILES.

Data set [1] concerns Rattus norvegicus. Nature of the data set: Evaluated for biodistribution in rat thyroid after 1 min of administration. In kind it is ADME, organism-based, Thyroid gland. To be noted: in vivo.
The test system of data set [2] is Rattus norvegicus. Nature of the data set: Evaluated for biodistribution in rat liver after 1 min of administration. Conditions: in vivo. The format is ADME, organism-based.
The test system of data set [3] is Rattus norvegicus. Description: Evaluated for biodistribution in rat liver after 6 min of administration. In kind it is ADME, organism-based. Conditions: in vivo, 0.1 h.
Data set [4] deals with Rattus norvegicus. Description: Evaluated for biodistribution in rat thyroid after 6 min of administration. In kind it is ADME, organism-based, Thyroid gland. To be noted: in vivo, 0.1 h.
For data set [5], the system named is Rattus norvegicus. Nature of the data set: Evaluated for biodistribution in rat blood after 6 min of administration. The format is ADME, organism-based. Conditions: in vivo, 0.1 h.
Data set [6] concerns Rattus norvegicus. Description: Evaluated for biodistribution in rat heart after 2 min of administration. The format is ADME, organism-based. To be noted: in vivo.
Data set [7] has as its system Rattus norvegicus. Nature of the data set: Evaluated for biodistribution in rat lung after 6 min of administration. Conditions: in vivo, 0.1 h. In kind it is ADME, organism-based.
Data set [8] relates to Rattus norvegicus. Description: Evaluated for biodistribution in rat liver after 2 min of administration. The format is ADME, organism-based. Conditions: in vivo.
The test system of data set [9] is Rattus norvegicus. Description: Evaluated for biodistribution in rat blood after 1 min of administration. In kind it is ADME, organism-based. To be noted: in vivo.
Data set [10] deals with Rattus norvegicus. Nature of the data set: Evaluated for biodistribution in rat brain after 1 min of administration. To be noted: in vivo. The format is ADME, organism-based.
In data set [11] the test system is Rattus norvegicus. Description: Evaluated for biodistribution in rat lung after 2 min of administration. Conditions: in vivo. The format is ADME, organism-based.
Data set [12] has as its system Rattus norvegicus. Description: Evaluated for biodistribution in rat lung after 1 min of administration. The format is ADME, organism-based. To be noted: in vivo.
The subject of data set [13] is Rattus norvegicus. Nature of the data set: Evaluated for biodistribution in rat heart after 1 min of administration. The format is ADME, organism-based. Conditions: in vivo.
Data set [14] relates to Rattus norvegicus. Nature of the data set: Evaluated for biodistribution in rat kidney after 1 min of administration. The format is ADME, organism-based. Conditions: in vivo.
The subject of data set [15] is Rattus norvegicus. Description: Evaluated for biodistribution in rat heart after 6 min of administration. Conditions: in vivo, 0.1 h. The format is ADME, organism-based.
In data set [16] the test system is Rattus norvegicus. Nature of the data set: Evaluated for biodistribution in rat kidney after 6 min of administration. The format is ADME, organism-based. To be noted: in vivo, 0.1 h.
The subject of data set [17] is Rattus norvegicus. Nature of the data set: Evaluated for biodistribution in rat kidney after 2 min of administration. The format is ADME, organism-based. Conditions: in vivo.
The test system of data set [18] is Rattus norvegicus. Nature of the data set: Evaluated for biodistribution in rat thyroid after 2 min of administration. In kind it is ADME, organism-based, Thyroid gland. Conditions: in vivo.
The test system of data set [19] is Rattus norvegicus. Nature of the data set: Evaluated for biodistribution in rat brain after 6 min of administration. The format is ADME, organism-based. Conditions: in vivo, 0.1 h.
The test system of data set [20] is Rattus norvegicus. Nature of the data set: Evaluated for biodistribution in rat brain after 2 min of administration. In kind it is ADME, organism-based. To be noted: in vivo.
The test system of data set [21] is Rattus norvegicus. Nature of the data set: Evaluated for biodistribution in rat blood after 2 min of administration. In kind it is ADME, organism-based. Conditions: in vivo.
Data set [22] is described as follows: Evaluated for the carrier level on brain uptake at 0.04 mg/kg dose in rat. Further details: dose 0.04 mg/kg. The format is ADME, organism-based. Conditions: in vivo.
Data set [23] is described as follows: Evaluated for the carrier level on brain uptake at 40 mg/kg dose in rat. In kind it is ADME, organism-based. Further details: dose 40 mg/kg. Conditions: in vivo.
Data set [24] is described as follows: Evaluated for the carrier level on brain uptake at 4 mg/kg dose in rat. In kind it is ADME, organism-based. Further details: dose 4 mg/kg. To be noted: in vivo.
The nature of data set [25]: Evaluated for the carrier level on brain uptake at 0.4 mg/kg dose in rat. In kind it is ADME, organism-based. Further details: dose 0.4 mg/kg. Conditions: in vivo.

For `CN(C)Cc1ccccc1I`, the Biodistribution in the data set with Rattus norvegicus [1] is 0.01%; in the data set on Rattus norvegicus [2], 1.92%; in the data set with Rattus norvegicus [3], 0.45%; in the data set on Rattus norvegicus [4] it was 0.035%; in the data set with Rattus norvegicus [5], 0.35%; in the data set with Rattus norvegicus [6] it was 0.59%. Further, the Biodistribution is 0.04% in the data set with Rattus norvegicus [7]; 11.81% in the data set with Rattus norvegicus [8]; 1.35% in the data set on Rattus norvegicus [9]; 0.07% with Rattus norvegicus [10]; 2.9% in the data set on Rattus norvegicus [11]; 0.19% in the data set on Rattus norvegicus [12]. For the same compound, the Biodistribution worked out at 0.06% with Rattus norvegicus [13]; 1.03% with Rattus norvegicus [14]; 0.014% in the data set with Rattus norvegicus [15]; 0.34% with Rattus norvegicus [16]; 10.12% in the data set with Rattus norvegicus [17]; 0.11% with Rattus norvegicus [18]. Besides, the Biodistribution in the data set with Rattus norvegicus [19] amounted to 0.022%; in the data set on Rattus norvegicus [20] it was 2.42%; with Rattus norvegicus [21], 7.01%.
In the case of `CN(C)Cc1ccc(I)c(CN(C)C)c1`, the Biodistribution with Rattus norvegicus [1] was 0.11%; with Rattus norvegicus [2], 18.31%; in the data set with Rattus norvegicus [3] it was 7.81%; with Rattus norvegicus [4], 0.14%; with Rattus norvegicus [5], 0.42%; with Rattus norvegicus [6], 2.76%. Also, the Biodistribution with Rattus norvegicus [7] was 1.96%; in the data set on Rattus norvegicus [8] it was 9.52%; in the data set with Rattus norvegicus [9], 0.83%; with Rattus norvegicus [10], 2.36%; in the data set with Rattus norvegicus [11], 22.63%; in the data set on Rattus norvegicus [12], 4.36%. Further, the Biodistribution in the data set on Rattus norvegicus [13] was found to be 0.44%; in the data set on Rattus norvegicus [14], 6.19%; in the data set with Rattus norvegicus [15], 0.19%; in the data set on Rattus norvegicus [16] it was 2.98%; with Rattus norvegicus [17], 7.69%; in the data set with Rattus norvegicus [18] it was 0.28%. The values for the Biodistribution in the data set with Rattus norvegicus [19], with Rattus norvegicus [20] and with Rattus norvegicus [21] were 1.51%, 2.4% and 3.52%, respectively. In addition, the Brain uptake in data set [22] is given as 2.67%; in [23], 2.43%; in [24], 2.09%; in data set [25], 3.03%.
`Ic1ccc(CN2CCCCC2)cc1CN1CCCCC1`: the Biodistribution with Rattus norvegicus [1] came out at 0.15%; in the data set with Rattus norvegicus [2] it was 13.51%; in the data set with Rattus norvegicus [3] it was 9.2%; with Rattus norvegicus [4], 0.11%; in the data set with Rattus norvegicus [5] it was 0.77%; with Rattus norvegicus [6], 3.19%. The Biodistribution worked out at 1.75% in the data set with Rattus norvegicus [7]; 12.5% with Rattus norvegicus [8]; 1.6% in the data set with Rattus norvegicus [9]; 1.47% in the data set with Rattus norvegicus [10]; 26.54% in the data set with Rattus norvegicus [11]; 6.65% with Rattus norvegicus [12]. The Biodistribution with Rattus norvegicus [13] came to 0.51%; in the data set on Rattus norvegicus [14], 7.75%; with Rattus norvegicus [15], 0.18%; in the data set on Rattus norvegicus [16], 1.97%; with Rattus norvegicus [17] it was 7.33%; with Rattus norvegicus [18], 0.22%. Moreover, the Biodistribution stood at 0.7% in the data set on Rattus norvegicus [19], 1.7% in the data set with Rattus norvegicus [20] and 4.11% with Rattus norvegicus [21].
For the compound `CC(C)NCc1ccc(I)c(CNC(C)C)c1`, the Biodistribution in the data set on Rattus norvegicus [1] is reported as 0.27%; in the data set on Rattus norvegicus [2], 8.38%; with Rattus norvegicus [3] it was 5.17%; in the data set on Rattus norvegicus [4] it was 0.45%; in the data set with Rattus norvegicus [5], 1.33%; with Rattus norvegicus [6], 2.18%. Also, the Biodistribution worked out at 8.71% with Rattus norvegicus [7]; 10.22% with Rattus norvegicus [8]; 1.76% in the data set on Rattus norvegicus [9]; 0.64% in the data set on Rattus norvegicus [10]; 31.98% with Rattus norvegicus [11]; 13.02% in the data set with Rattus norvegicus [12]. For the same compound, the Biodistribution is 1.99% in the data set with Rattus norvegicus [13]; 6.71% in the data set with Rattus norvegicus [14]; 0.83% with Rattus norvegicus [15]; 3.4% in the data set on Rattus norvegicus [16]; 6.93% in the data set on Rattus norvegicus [17]; 0.18% in the data set with Rattus norvegicus [18]. The figures for the Biodistribution in the data set on Rattus norvegicus [19], in the data set on Rattus norvegicus [20] and in the data set with Rattus norvegicus [21] were 0.59%, 0.62% and 6.42%, respectively.
